Counter-ions that a name gives are not always drawn. Like-named read-outs stand apart in the source and are kept apart here.
Tests used:
antibody production = experiment: Mouse Hemagglutinin assay, oral administration (pooled serum assay procedure); format: in vivo, mouse (Swiss); conditions: P.O., nine daily doses; for minimal effective dose: Mus musculus, po, read-out: MED (minimum effective dose: lowest drug dose producing 75 percent or greater antibody suppression)
Experimental: Groups of five 20-gram, male, random-bred, Swiss mice received intravenous injections of 5×10^7 sheep red blood cells. The cells for these injections were prepared from lamb's blood (collected in Alsever's solution) by washing three times with 0.85 percent saline. Nine daily doses of each compound to be tested, solubilized in polyethylene glycol 400, were administered orally in 0.1 ml. doses, commencing three days prior to red blood cell injection. Several dose levels of each compound were employed, at 2-fold increments. A control group of mice, receiving a red blood cell injection and nine daily doses of vehicle instead of drug, was included. Six days after the antigen injections, the mice were bled by cardiac puncture and the blood from each 5-mouse group pooled. […] Following incubation of the trays for 3 hours at 37° C., the hemagglutination patterns were graded.

GVH reaction = experiment: Graft-Versus-Host (GVH) Reaction; format: in vivo, mouse (C57BL×C3H); conditions: for minimal effective dose: 312 h, read-out: Endpoint Dose (p < 0.05): lowest drug dose significantly lowering the spleen/body weight ratio
Experimental: In this test, parental (C57BL) mouse spleen cells are injected into mice of an F1 hybrid strain (C57BL×C3H). […] As a consequence, the recipient's spleen becomes enlarged. Immunosuppression prevents or reduces this enlargement. Thus, spleen weights provide a measure of the GVH reaction and its reduction under immunosuppression.
A modification of Simonsen's original procedure (Ann. N.Y. Acad. Sci., 73, 834 (1958) was employed. Large crops of spleen cells were obtained, without the generally employed manual teasing of spleens, by using Waring blendors with the cutting blades reversed. Two six-second blending periods buffeted the spleens (batches of 25 C57BL spleens in 25-ml. saline) sufficiently to free the cells from the connective tissue. The latter was removed by filtration through several thicknesses of cheesecloth. Cell suspensions prepared in this fashion were standardized, by means of Levy-Hausser chamber counts, to contain 6×10^8 nucleated cells per ml. Groups of ten 16-18 gram C57BL×C3H mice were injected intraperitoneally with 1 ml. of the donor cell suspension. The compounds were administered either orally (P.O.) or subcutaneously (S.C.) in a vehicle composed of saline containing 0.125% methylcellulose and 0.2% emulphor, commencing 3 days prior to cell injection and continuing daily for 13 days. Control animals received only cells and vehicle. The spleens were removed and weighed 10 days following cell injection, and the mg. spleen/gram body weight was calculated.
The compounds were administered at several dose levels and the mean spleen/body weight ratio at each dose level was compared to the control group which received only the vehicle. The p values (by Student's two-tail t Test) were determined as compared to the control group. […] The results obtained in the graft-versus-host reaction with the compounds of this invention and standard compounds are summarized in Table III.

antibody titer = experiment: Individual Serum Assay Procedure (mouse hemagglutinin, oral); format: in vivo, mouse (Swiss); conditions: read-out: Endpoint Dose (p < 0.05): lowest drug dose significantly lowering antibody titer
[1] = tested on: adjuvant-induced arthritis; experiment: Adjuvant-induced Arthritis Test in Rats: uninjected paw volume inflammation; format: in vivo, rat (Lewis-Wistar); conditions: days 11 through 25
[2] = tested on: adjuvant-induced arthritis; experiment: Adjuvant-induced Arthritis Test in Rats: bone damage by X-ray; format: in vivo, rat (Lewis-Wistar); conditions: X-ray day 25
[3] = po, P.O., daily for 13 days, mouse
[4] = P.O., ten daily doses, mouse, individual serum

Structure (SMILES): C[n+]1c2ccc(Cl)cc2n2c(=O)c3cccc4cccc(c43)c21
- minimal effective dose (antibody production): > 100 mg/kg

Structure (SMILES): C[n+]1c2ccc(C(F)(F)F)cc2n2c(=O)c3cccc4cccc(c43)c21
- minimal effective dose (antibody production): 100 mg/kg

Structure (SMILES): C[n+]1c2cc(Cl)ccc2n2c(=O)c3cccc4cccc(c43)c21
- minimal effective dose (antibody production): 100 mg/kg

Structure (SMILES): O=c1c2cccc3cccc(c32)c2nc3ccc(Br)cc3n12 [10-bromo, 10-bromo-7H-benzimidazo[2,1-a]benz[de]isoquinoline-7-one]
- minimal effective dose (antibody production): 12.5 mg/kg

Structure (SMILES): O=c1c2cccc3cccc(c32)c2nc3ccc(Cl)cc3n12 [10-chloro, 10-chloro-7H-benzimidazo[2,1-a]benz[de]isoquinoline-7-one]
- minimal effective dose (antibody production): 3.1 mg/kg

Structure (SMILES): O=c1c2cccc3cccc(c32)c2nc3ccc(C(F)(F)F)cc3n12 [10-trifluoromethyl, 10-(trifluoromethyl)-7H-benzimidazo[2,1-a]benz[de]isoquinoline-7-one]
- minimal effective dose (GVH reaction; [3]): < 25 mg/kg
- minimal effective dose (antibody production): 25 mg/kg

Structure (SMILES): O=c1c2cccc3cccc(c32)c2nc3cc(Br)ccc3n12 [11-bromo, 11-bromo-7H-benzimidazo[2,1-a]benz[de]isoquinoline-7-one]
- minimal effective dose (GVH reaction; [3]): < 25 mg/kg
- minimal effective dose (antibody production): 1.6 mg/kg
- minimal effective dose (antibody titer; [4]): 12.5 mg/kg

Structure (SMILES): O=c1c2cccc3cccc(c32)c2nc3cc(Cl)ccc3n12 [11-chloro(p-toluenesulfonate salt)]
- MED (minimum effective dose: lowest drug dose producing 75 percent or greater antibody suppression) (antibody production): 6.25 mg./kg. × 9

Structure (SMILES): O=c1c2cccc3cccc(c32)c2nc3cc(Cl)ccc3n12 [11-chloro, 11-chloro-7H-benzimidazo[2,1-a]benz[de]isoquinoline-7-one]
- minimal effective dose (GVH reaction; Mus musculus, po): 12.5 mg/kg
- MED (minimum effective dose: lowest drug dose producing 75 percent or greater antibody suppression) (antibody production): 0.4 mg./kg. × 9
- minimal effective dose (antibody titer; [4]): 0.2 mg/kg

Structure (SMILES): O=c1c2cccc3cccc(c32)c2nc3cc(F)ccc3n12 [11-fluoro, 11-fluoro-7H-benzimidazo[2,1-a]benz[de]isoquinoline-7-one]
- minimal effective dose (antibody production): 12.5 mg/kg

Structure (SMILES): O=c1c2cccc3cccc(c32)c2nc3cc(C(F)(F)F)ccc3n12 [11-trifluoromethyl(p-toluenesulfonate salt)]
- MED (minimum effective dose: lowest drug dose producing 75 percent or greater antibody suppression) (antibody production): 3.1 mg./kg. × 9

Structure (SMILES): O=c1c2cccc3cccc(c32)c2nc3cc(C(F)(F)F)ccc3n12 [11-trifluoromethyl, 11-(trifluoromethyl)-7H-benzimidazo[2,1-a]benz[de]isoquinoline-7-one]
- % Inhibition of uninjected paw volume inflammation (AUC) ([1]; Test 1, 100 mg./kg. P.O. × 24): 85.8%
- % Inhibition of uninjected paw volume inflammation (AUC) ([1]; Test 2, 50 mg./kg. P.O. × 24): 55.9%
- minimal effective dose (GVH reaction; Mus musculus, po): 12.5 mg/kg
- minimal effective dose (GVH reaction; sc, S.C., daily for 13 days, mouse): < 0.1 mg/kg
- MED (minimum effective dose: lowest drug dose producing 75 percent or greater antibody suppression) (antibody production): 0.2 mg./kg. × 9
- inhibition of bone damage, injected paws ([2]; Test 1 (100 mg./kg. P.O. × 24)): 68%
- inhibition of bone damage, uninjected paws, compared to TB control group ([2]; Test 1 (100 mg./kg. P.O. × 24)): 94%
- inhibition of bone damage, injected paws ([2]; Test 2 (50 mg./kg. P.O. × 24)): 66%
- inhibition of bone damage, uninjected paws, compared to TB control group ([2]; Test 2 (50 mg./kg. P.O. × 24)): 88%
- minimal effective dose (antibody titer; [4]): 0.4 mg/kg

Structure (SMILES): C[n+]1c2cc(C(F)(F)F)ccc2n2c(=O)c3cccc4cccc(c43)c21 [13-methyl-7-oxo-11-(trifluoromethyl)-7H-benzimidazo[2,1-a]benz[de]isoquinolinium 4-methylbenzenesulfonate]
- minimal effective dose (GVH reaction; Mus musculus, po): 12.5 mg/kg
- minimal effective dose (antibody production): 1.6 mg/kg
- minimal effective dose (antibody titer; Mus musculus): 12.5 mg/kg

Structure (SMILES): Cn1cnc([N+](=O)[O-])c1Sc1ncnc2nc[nH]c12 [Azathioprine, reference compound]
- Endpoint Dose (p < 0.05): lowest drug dose significantly lowering the spleen/body weight ratio (GVH reaction; P.O., daily for 13 days, mouse): 12.5 mg./kg. × 13
- minimal effective dose (antibody production): 100 mg/kg
- minimal effective dose (antibody titer; [4]): 100 mg/kg

Structure (SMILES): C[C@]12CCC(=O)C=C1CC[C@@H]1[C@@H]2C(=O)C[C@@]2(C)[C@H]1CC[C@]2(O)C(=O)CO [Cortisone, reference compound]
- minimal effective dose (GVH reaction; [3]): 3.1 mg/kg

Structure (SMILES): O=P1(N(CCCl)CCCl)NCCCO1 (stereo not shown) [Cyclophosphamide, reference compound]
- minimal effective dose (GVH reaction; [3]): 12.5 mg/kg

Structure (SMILES): CC(C(=O)O)c1cccc(Oc2ccccc2)c1 (stereo not shown) [Fenoprofen, reference compound]
- % Inhibition of uninjected paw volume inflammation (AUC) ([1]; Test 1, 40 mg./kg. P.O. × 24): 44.0%
- % Inhibition of uninjected paw volume inflammation (AUC) ([1]; Test 2, 40 mg./kg. P.O. × 24): 60.7%

Structure (SMILES): CN(Cc1cnc2nc(N)nc(N)c2n1)c1ccc(C(=O)N[C@@H](CCC(=O)O)C(=O)O)cc1 [Methotrexate, reference compound]
- minimal effective dose (GVH reaction; Mus musculus, po): 0.2 mg/kg
